# Assays:
# [1] = molecular target: human FPR1 (Homo sapiens (Human), UniProt P21462); assay: FPR1 cyclic adenosine monophosphate (cAMP) assay; type: cell-based; conditions: CHO cells overexpressing human FPR1; inhibition of forskolin (10 μM) stimulated cAMP; read-out: hFPR1 cAMP EC50
# Experimental: (§1) FPR2 and FPR1 Cyclic Adenosine Monophosphate (cAMP) Assays. A mixture of forskolin (5 μM final for FPR2 or 10 μM final for FPR1) and IBMX (200 μM final) were added to 384-well Proxiplates (Perkin-Elmer) pre-dotted with test compounds in DMSO (1% final) at final concentrations in the range of 0.020 nM to 100 μM. Chinese Hamster Ovary cells (CHO) overexpressing human FPR1 or human FPR2 receptors were cultured in F-12 (Ham's) medium supplemented with 10% qualified FBS, 250 μg/ml zeocin and 300 μg/ml hygromycin (Life Technologies). Reactions were initiated by adding 2,000 human FPR2 cells per well or 4,000 human FPR1 cells per well in Dulbecco's PBS (with calcium and magnesium) (Life Technologies) supplemented with 0.1% BSA (Perkin-Elmer). The reaction mixtures were incubated for 30 min at room temperature. The level of intracellular cAMP was determined using the HTRF HiRange cAMP assay reagent kit (Cisbio) according to manufacturer's instruction. Solutions of cryptate conjugated anti-cAMP and d2 flurorophore-labelled cAMP were made in a supplied lysis buffer separately. Upon completion of the reaction, the cells were lysed with equal volume of the d2-cAMP solution and anti-cAMP solution. After a 1-h room temperature incubation, time-resolved fluorescence intensity was measured using the Envision (Perkin-Elmer) at 400 nm excitation and dual emission at 590 nm and 665 nm. A calibration curve was constructed with an external cAMP standard at concentrations ranging from 1 μM to 0.1 pM by plotting the fluorescent intensity ratio from 665 nm emission to the intensity from the 590 nm emission against cAMP concentrations. The potency and activity of a compound to inhibit cAMP production was then determined by fitting to a 4-parametric logistic equation from a plot of cAMP level versus compound concentrations.
# [2] = molecular target: human FPR2 (Homo sapiens (Human), UniProt P25090); assay: FPR2 cyclic adenosine monophosphate (cAMP) assay; type: cell-based; conditions: CHO cells overexpressing human FPR2; inhibition of forskolin (5 μM) stimulated cAMP; read-out: hFPR2 cAMP2 EC50
# Experimental: as §1, with “After a 1-h room temperature incubation, time-resolved fluorescence intensity was measured using the Envision (Perkin-Elmer) at 400 nm excitation and dual emission at 590 nm and 665 nm. A calibration curve was constructed with an external cAMP standard at concentrations ranging from 1 μM to 0.1 pM by plotting the fluorescent intensity ratio from 665 nm emission to the intensity from the 590 nm emission against cAMP concentrations.” left out
# human FPR1, sequence (P21462 whole entry): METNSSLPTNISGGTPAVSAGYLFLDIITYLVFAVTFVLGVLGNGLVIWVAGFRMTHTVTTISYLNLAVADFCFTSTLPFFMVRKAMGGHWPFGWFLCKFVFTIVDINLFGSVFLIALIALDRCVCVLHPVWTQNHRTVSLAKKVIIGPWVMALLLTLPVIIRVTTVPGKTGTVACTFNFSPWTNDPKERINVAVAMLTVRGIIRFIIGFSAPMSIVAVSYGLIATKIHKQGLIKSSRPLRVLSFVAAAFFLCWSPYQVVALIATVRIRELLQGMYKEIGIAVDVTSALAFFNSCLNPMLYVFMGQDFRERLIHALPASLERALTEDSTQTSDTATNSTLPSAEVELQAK
# human FPR2, sequence (P25090 whole entry): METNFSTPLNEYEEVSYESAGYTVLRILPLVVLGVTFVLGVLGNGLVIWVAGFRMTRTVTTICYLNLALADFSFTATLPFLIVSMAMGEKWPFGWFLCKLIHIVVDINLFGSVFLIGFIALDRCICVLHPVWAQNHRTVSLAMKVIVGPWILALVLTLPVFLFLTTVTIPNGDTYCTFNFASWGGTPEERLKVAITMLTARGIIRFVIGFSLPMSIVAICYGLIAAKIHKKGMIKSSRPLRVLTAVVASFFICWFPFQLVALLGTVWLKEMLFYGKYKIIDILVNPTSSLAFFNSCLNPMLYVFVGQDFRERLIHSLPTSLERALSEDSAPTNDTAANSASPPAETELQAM
EC50 [1],EC50 [2],Structure (SMILES)
25 nM,0.13 nM,CS(=O)(=O)Nc1ccccc1-c1ccc(N2CCC[C@@H](NC(=O)Nc3ccc(Cl)cc3F)C2=O)cc1 [Example 188]
220 nM,0.76 nM,COc1ccc(NC(=O)N[C@@H]2CCCN(c3ccc(-c4ccccc4NS(C)(=O)=O)cc3)C2=O)c(F)c1 [Example 197]
140 nM,0.28 nM,COc1ccc(NC(=O)N[C@@H]2CCCN(c3ccc(-c4ccccc4NS(C)(=O)=O)cc3)C2=O)cc1 [Example 199]
27 nM,0.35 nM,CS(=O)(=O)Nc1ccccc1-c1ccc(N2C[C@H](O)C[C@@H](NC(=O)Nc3ccc(Cl)cc3)C2=O)cc1 [Example 211]
120 nM,0.63 nM,CS(=O)(=O)Nc1ccccc1-c1ccc(N2CCC[C@@H](NC(=O)Nc3ccc(C(F)(F)F)cc3F)C2=O)cc1 [Example 212]
110 nM,0.75 nM,CS(=O)(=O)Nc1ccccc1-c1ccc(N2C[C@H](O)C[C@@H](NC(=O)Nc3ccc(C(F)(F)F)cc3)C2=O)cc1 [Example 213]
160 nM,2.24 nM,CS(=O)(=O)Nc1ccccc1-c1ccc(N2C[C@H](O)C[C@H](NC(=O)Nc3ncc(Cl)cc3F)C2=O)cc1 [Example 214]
260 nM,2 nM,CS(=O)(=O)Nc1ccccc1-c1ccc(N2C[C@H](O)C[C@@H](NC(=O)Nc3ccc(Cl)cn3)C2=O)cc1 [Example 215]
3300 nM,17 nM,COc1cc(-c2ccccc2NS(C)(=O)=O)ccc1N1CCC[C@@H](NC(=O)Nc2ncc(C(F)(F)F)cc2F)C1=O [Example 255]
1400 nM,17 nM,COc1cc(-c2ccccc2NS(C)(=O)=O)ccc1N1CCC[C@@H](NC(=O)Nc2ccc(C(F)(F)F)cn2)C1=O [Example 256]
3500 nM,17 nM,CS(=O)(=O)Nc1ccccc1-c1ccc(N2CCC[C@@H](NC(=O)Nc3ccc(OC(F)F)nc3)C2=O)cc1 [Example 257]
> 10000 nM,20 nM,Cc1cnc(NC(=O)N[C@@H]2CCCN(c3ccc(-c4ccccc4NS(C)(=O)=O)cc3F)C2=O)cn1 [Example 258]
2000 nM,22 nM,COc1cnc(NC(=O)N[C@@H]2CCCN(c3ccc(-c4ccccc4NS(C)(=O)=O)c(F)c3)C2=O)c(F)c1 [Example 259]
210 nM,0.59 nM,"CS(=O)(=O)Nc1ccccc1-c1cc(F)c(N2CCC[C@@H](NC(=O)Nc3ccc(Cl)cc3)C2=O)c(F)c1 [Example 260, (R)—N-(4′-(3-(3-(4-chlorophenyl)ureido)-2-oxopiperidin-1-yl)-3′,5′-difluoro-[1,1′-biphenyl]-2-yl)methanesulfonamide]"
680 nM,8.5 nM,"NCc1cccc(-c2ccc(N3CCC[C@@H](NC(=O)Nc4ccc(Cl)cc4)C3=O)cc2)c1F [Example 276, (R)-1-(1-(3′-(Aminomethyl)-2′-fluoro-[1,1′-biphenyl]-4-yl)-2-oxopiperidin-3-yl)-3-(4-chlorophenyl)urea]"
8.4 nM,0.17 nM,"CS(=O)(=O)Nc1ccccc1-c1ccc(N2C[C@H](O)C[C@@H](NC(=O)Nc3ccc(Cl)cc3F)C2=O)cc1 [Example 277, N-(4′-((3R,5R)-3-(3-(4-chloro-2-fluorophenyl)ureido)-5-hydroxy-2-oxopiperidin-1-yl)-[1,1′-biphenyl]-2-yl)methanesulfonamide]"
130 nM,5.5 nM,"CS(=O)(=O)Nc1ccccc1-c1ccc(N2CCC[C@@H](NC(=O)Nc3ccc(Cl)cc3F)C2=O)c(Cl)c1 [Example 299, 1-[(3R)-1-{3-chloro-2′-methanesulfonamido-[1,1′-biphenyl]-4-yl}-2-oxopiperidin-3-yl]-3-(4-chloro-2-fluorophenyl)urea]"

# Source: US11186544B2 (BRISTOL-MYERS SQUIBB COMPANY, priority 2017, dated 2021)
